Values joined by “and” are separate entries in the source; they are usually repeats but may differ in a detail not shown here. Equal entries are not always repeated. Toxic doses and inconclusive results are not listed. No stated cut-off is given here; in the data, active means T/C of 150% or more; inactive means T/C below 125%.
System: L1210 leukemia ip in BDF1 mice, survival T/C
Test: NCI In Vivo Anticancer Drug Screen. Data for tumor model L1210 Leukemia (intraperitoneal) in B6D2F1 (BDF1) mice
Settings: endpoint: mean survival time, higher = longer survival
Outline: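 Transplantable tumor model; survival measured in treated vs vehicle control mice. Value = treated/control.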

[1] = dose: 100.0 mg/kg/injection, schedule: Q01DX009 (ip), vehicle: saline with Tween-80
[2] = dose: 100.0 mg/kg/injection, schedule: Q04DX003 (ip), vehicle: Klucel (hydroxypropylcellulose) (HPC)
[3] = dose: 200.0 mg/kg/injection, schedule: Q04DX003 (ip), vehicle: Klucel (hydroxypropylcellulose) (HPC)
[4] = dose: 100.0 mg/kg/injection, schedule: Q01DX001 (ip), vehicle: saline
[5] = dose: 200.0 mg/kg/injection, schedule: Q01DX001 (ip), vehicle: saline
[6] = dose: 400.0 mg/kg/injection, schedule: Q01DX001 (ip), vehicle: saline
[7] = dose: 100.0 mg/kg/injection, schedule: Q01DX009 (ip), vehicle: Klucel (hydroxypropylcellulose) (HPC)
[8] = dose: 75.0 mg/kg/injection, schedule: Q01DX001 (ip), vehicle: saline
[9] = dose: 100.0 mg/kg/injection, schedule: Q01DX009 (ip), vehicle: saline
[10] = dose: 200.0 mg/kg/injection, schedule: Q01DX009 (ip), vehicle: saline
[11] = dose: 200.0 mg/kg/injection, schedule: Q01DX009 (ip), vehicle: Klucel (hydroxypropylcellulose) (HPC)
[12] = dose: 400.0 mg/kg/injection, schedule: Q01DX009 (ip), vehicle: Klucel (hydroxypropylcellulose) (HPC)
[13] = dose: 400.0 mg/kg/injection, schedule: Q04DX003 (ip), vehicle: Klucel (hydroxypropylcellulose) (HPC)
[14] = dose: 100.0 mg/kg/injection, schedule: Q04DX003 (ip), vehicle: saline with Tween-80

Measured: T/C

Nc1cccc(Cl)c1
inactive: dose: 25.0 mg/kg/injection, schedule: Q01DX009 (ip), vehicle: saline with Tween-80 92 % of control | dose: 50.0 mg/kg/injection, schedule: Q01DX009 (ip), vehicle: saline with Tween-80 92 % of control | [1] 95 % of control | [2] 95 % of control | [3] 90 % of control

COC(=O)c1oc2cc(Cl)cnc2c1C(=O)OC
inactive: dose: 100.0 mg/kg/injection, schedule: Q04DX002 (ip), vehicle: saline with Tween-80 97 % of control | dose: 200.0 mg/kg/injection, schedule: Q04DX002 (ip), vehicle: saline with Tween-80 97 % of control | dose: 400.0 mg/kg/injection, schedule: Q04DX002 (ip), vehicle: saline with Tween-80 94 % of control

CCN(CC)c1ccc(/C=C(/S)C(=O)O)cc1
inactive: [4] 89 % of control | [5] 92 % of control | [6] 92 % of control

O=S1(=O)CC23C=CC=CC2(CCCC3)C1Cl (stereo not given)
inactive: dose: 25.0 mg/kg/injection, schedule: Q01DX009 (ip), vehicle: Klucel (hydroxypropylcellulose) (HPC) 94 % of control | dose: 50.0 mg/kg/injection, schedule: Q01DX009 (ip), vehicle: Klucel (hydroxypropylcellulose) (HPC) 102 % of control | [7] 94 % of control

NS(=O)(=O)c1cc(Cl)ccc1Cl
inactive: dose: 100.0 mg/kg/injection, schedule: Q01DX001 (ip), vehicle: saline with Tween-80 88 % of control | dose: 200.0 mg/kg/injection, schedule: Q01DX001 (ip), vehicle: saline with Tween-80 94 % of control | dose: 400.0 mg/kg/injection, schedule: Q01DX001 (ip), vehicle: saline with Tween-80 91 % of control

FC(F)(F)COC(Br)CBr (stereo not given)
inactive: dose: 15.0 mg/kg/injection, schedule: Q01DX001 (ip), vehicle: carboxymethylcellulose (CMC) 101 % of control | dose: 30.0 mg/kg/injection, schedule: Q01DX001 (ip), vehicle: carboxymethylcellulose (CMC) 93 % of control | dose: 60.0 mg/kg/injection, schedule: Q01DX001 (ip), vehicle: carboxymethylcellulose (CMC) 95 % of control

CC(C)C1C(C(C)C)N1C(=O)Nc1ccccc1 (stereo not given)
inactive: dose: 100.0 mg/kg/injection, schedule: Q01DX001 (ip), vehicle: Klucel (hydroxypropylcellulose) (HPC) 93 % of control | dose: 200.0 mg/kg/injection, schedule: Q01DX001 (ip), vehicle: Klucel (hydroxypropylcellulose) (HPC) 96 % of control | dose: 400.0 mg/kg/injection, schedule: Q01DX001 (ip), vehicle: Klucel (hydroxypropylcellulose) (HPC) 93 % of control

NC(=O)c1ccccc1I
inactive: [8] 101 % of control | dose: 75.0 mg/kg/injection, schedule: Q01DX009 (ip), vehicle: saline 103 % of control | dose: 150.0 mg/kg/injection, schedule: Q01DX001 (ip), vehicle: saline 96 % of control | dose: 150.0 mg/kg/injection, schedule: Q01DX009 (ip), vehicle: saline 86 % of control | dose: 300.0 mg/kg/injection, schedule: Q01DX001 (ip), vehicle: saline 96 % of control | dose: 300.0 mg/kg/injection, schedule: Q01DX009 (ip), vehicle: saline 100 % of control

C#CCN
inactive: [4] 103 % of control | [9] 94 % of control | [5] 102 % of control | [10] 96 % of control | [6] 102 % of control | dose: 400.0 mg/kg/injection, schedule: Q01DX009 (ip), vehicle: saline 93 % of control

O=C(Nc1ccc(Nc2ccccc2)cc1)Nc1ccccc1Cl
inactive: [7] 90 % of control | [2] 95 % of control | [11] 90 % of control | [3] 92 % of control | [12] 92 % of control | [13] 90 % of control

CCCCCCC(C)OC(=O)c1ccccc1C(=O)OC(C)CCCCCC (stereo not given)
inactive: dose: 100.0 mg/kg/injection, schedule: Q04DX002 (ip), vehicle: saline 102 % of control | dose: 200.0 mg/kg/injection, schedule: Q04DX002 (ip), vehicle: saline 95 % of control | dose: 400.0 mg/kg/injection, schedule: Q04DX002 (ip), vehicle: saline 102 % of control

COC(=O)c1cc(=O)[nH]n1C
inactive: [7] 104 % of control | [11] 104 % of control | [12] 101 % of control

Nc1ccccc1Sc1ccc(C(=O)O)cc1[N+](=O)[O-]
inactive: [2] 104 % of control | [3] 96 % of control | [13] 100 % of control

Nc1ncccn1
inactive: [2] 101 % of control | [3] 93 % of control | [13] 101 % of control

c1ccc(N=NC(c2ccccc2)c2ccccc2)cc1
inactive: dose: 50.0 mg/kg/injection, schedule: Q04DX003 (ip), vehicle: saline 106 % of control | dose: 100.0 mg/kg/injection, schedule: Q04DX003 (ip), vehicle: saline 95 % of control | dose: 200.0 mg/kg/injection, schedule: Q04DX003 (ip), vehicle: saline 106 % of control

CCCC(=O)Nc1cccc(OC(=O)NC)c1
inactive: [14] 90 % of control | dose: 400.0 mg/kg/injection, schedule: Q04DX003 (ip), vehicle: saline with Tween-80 88 % of control

CN(C)c1ccc(/C=C2\C=Cc3ccccc32)cc1F
inactive: dose: 100.0 mg/kg/injection, schedule: Q01DX001 (ip), vehicle: carboxymethylcellulose (CMC) 92 % of control | [1] 100 % of control | dose: 200.0 mg/kg/injection, schedule: Q01DX001 (ip), vehicle: carboxymethylcellulose (CMC) 95 % of control | dose: 200.0 mg/kg/injection, schedule: Q01DX009 (ip), vehicle: saline with Tween-80 94 % of control | dose: 400.0 mg/kg/injection, schedule: Q01DX001 (ip), vehicle: carboxymethylcellulose (CMC) 97 % of control | dose: 400.0 mg/kg/injection, schedule: Q01DX009 (ip), vehicle: saline with Tween-80 98 % of control

CCCCCCCCCCCCCCCCCC(=O)N/N=C/c1cccc([N+](=O)[O-])c1
inactive: [7] 94 % of control | [11] 96 % of control | [12] 88 % of control

Cc1cc(=O)[nH]c2ccccc12
inactive: [14] 91 % of control | dose: 200.0 mg/kg/injection, schedule: Q04DX003 (ip), vehicle: saline with Tween-80 95 % of control

Clc1ccc(N2CCNCC2)cc1
inactive: [8] 101 % of control

NC(C=O)C(O)C(O)C(O)CO (stereo not given)
inactive: dose: 50.0 mg/kg/injection, schedule: Q01DX009 (ip), vehicle: saline 94 % of control | [4] 104 % of control and 93 % of control | [9] 94 % of control | dose: 125.0 mg/kg/injection, schedule: Q01DX Z (ip), vehicle: carboxymethylcellulose (CMC) 100 % of control | [5] 105 % of control and 102 % of control | [10] 94 % of control | dose: 250.0 mg/kg/injection, schedule: Q01DX Z (ip), vehicle: carboxymethylcellulose (CMC) 94 % of control | [6] 102 % of control and 96 % of control | dose: 500.0 mg/kg/injection, schedule: Q01DX Z (ip), vehicle: carboxymethylcellulose (CMC) 96 % of control | dose: 750.0 mg/kg/injection, schedule: Q01DX009 (ip), vehicle: saline 100 % of control | dose: 1000.0 mg/kg/injection, schedule: Q01DX Z (ip), vehicle: carboxymethylcellulose (CMC) 95 % of control | dose: 1500.0 mg/kg/injection, schedule: Q01DX009 (ip), vehicle: saline 104 % of control | dose: 3000.0 mg/kg/injection, schedule: Q01DX009 (ip), vehicle: saline 104 % of control and 107 % of control | dose: 5000.0 mg/kg/injection, schedule: Q01DX009 (ip), vehicle: saline 98 % of control

Cc1ccc2nc(-c3cc(Br)ccc3O)c(-c3cc(Br)ccc3O)nc2c1
inactive: [7] 97 % of control | [2] 96 % of control | [11] 100 % of control | [3] 101 % of control | [12] 89 % of control | [13] 101 % of control

From PubChem BioAssay AID248 (DTP/NCI, 2004)
